# Laboratory results: patent US20260158020A1, “COMPOSITIONS AND USES THEREOF” (BENEVOLENTAI CAMBRIDGE LIMITED, priority 2020, published 2026)
# Read-outs that look alike come from different tables or passages of the source.
# Key:
# other PDE family members [1] = details: cited from earlier work
# [2] = test system: animals, conditioned avoidance response model; details: cited from earlier work
# PDE10A [3] = target: T1, PDE10A (Homo sapiens, UniProt Q9Y233); details: cited from earlier work
# PDE10A [4] = target: T1, PDE10A; details: read-out: binding affinity (Kd) PDE10A; cited from earlier work
# [5] = cited from earlier work
# [6] = test system: inflamed colonic mucosa from ulcerative colitis patients; experiment: Ex-vivo culture of colon biopsies from ulcerative colitis patients, cytokine release (Method 1); assay type: cell-based, human; details: colon biopsy samples from two UC patients, vs DMSO vehicle, PF-02545920 0.1 and 1 μM, TAK-063 1 μM, FIGS. 4 and 5
# Experimental: The effect of selective PDE10 inhibition was tested on inflamed colonic mucosa from ulcerative colitis patients taken during routine endoscopy (Method 1 detailed below). These samples retain a disease phenotype in ex-vivo culture and secrete high basal levels of inflammatory cytokines. The effect of selective PDE10 inhibition on levels of the inflammatory cytokines IL-8 and IL-6 released from these tissue samples was measured.
# These colon biopsies retain an inflammatory phenotype and secrete high levels of inflammatory cytokines in ex-vivo culture. […] The doses tested of each inhibitor will result in selective PDE10A inhibition over the other PDE family members.
# Biopsy tissue was obtained from inflamed colonic mucosa from ulcerative colitis patients during routine endoscopy. Ex-vivo biopsy cultures for the analysis of inflammatory cytokine biomarkers were run as previously described (Vossenkämper A. et al. A CD3-specific antibody reduces cytokine production and alters phosphoprotein profiles in intestinal tissues from patients with inflammatory bowel disease. Gastroenterology, 2014, 147, 172-183). […] Supernatants collected at the end of the experiment were snap-frozen and stored at −70° C. For the measurement of cytokines, the frozen culture supernatants were thawed and analysed for levels of the inflammatory cytokines using Luminex cytokine assay kits (R&D Systems) and an R&D Systems MAGPIX® analyser. Mean values±SDs were calculated for the levels of spontaneous cytokine production measured in biopsy culture supernatants from each treatment group.
# [7] = test system: isolated human neutrophils; experiment: In vitro assay of IL-8 neutrophil activation; assay type: cell-based; details: FIG. 3
# other PDE family members [8] = test system: T2, other PDE family members; details: isolated enzyme biochemical assays; literature (Grauer 2009; Kunitomo 2014); read-out: IC50s for other PDE family members; cited from earlier work
# T2 construct: other: isolated enzyme biochemical assays; literature (Grauer 2009; Kunitomo 2014)
# [9] = test system: inflamed colonic mucosa from treatment-refractory ulcerative colitis patients; experiment: Ex-vivo culture of inflamed colon tissue from surgical resection of treatment-refractory UC patients, TNFα release (Method 2); assay type: cell-based, human; details: colon samples from two treatment-refractory UC patients, with SEB, about 18 h, vs DMSO vehicle; printed 1 M (FIG. 6: 1 μM)
# human PDE10 = human PDE10 (Homo sapiens, UniProt Q9Y233); details: cited from earlier work
# rat PDE10 = target: T3, rat PDE10 (Rattus norvegicus, UniProt Q9QYJ6); details: cited from earlier work
# T3 sequence (Q9QYJ6 1-794): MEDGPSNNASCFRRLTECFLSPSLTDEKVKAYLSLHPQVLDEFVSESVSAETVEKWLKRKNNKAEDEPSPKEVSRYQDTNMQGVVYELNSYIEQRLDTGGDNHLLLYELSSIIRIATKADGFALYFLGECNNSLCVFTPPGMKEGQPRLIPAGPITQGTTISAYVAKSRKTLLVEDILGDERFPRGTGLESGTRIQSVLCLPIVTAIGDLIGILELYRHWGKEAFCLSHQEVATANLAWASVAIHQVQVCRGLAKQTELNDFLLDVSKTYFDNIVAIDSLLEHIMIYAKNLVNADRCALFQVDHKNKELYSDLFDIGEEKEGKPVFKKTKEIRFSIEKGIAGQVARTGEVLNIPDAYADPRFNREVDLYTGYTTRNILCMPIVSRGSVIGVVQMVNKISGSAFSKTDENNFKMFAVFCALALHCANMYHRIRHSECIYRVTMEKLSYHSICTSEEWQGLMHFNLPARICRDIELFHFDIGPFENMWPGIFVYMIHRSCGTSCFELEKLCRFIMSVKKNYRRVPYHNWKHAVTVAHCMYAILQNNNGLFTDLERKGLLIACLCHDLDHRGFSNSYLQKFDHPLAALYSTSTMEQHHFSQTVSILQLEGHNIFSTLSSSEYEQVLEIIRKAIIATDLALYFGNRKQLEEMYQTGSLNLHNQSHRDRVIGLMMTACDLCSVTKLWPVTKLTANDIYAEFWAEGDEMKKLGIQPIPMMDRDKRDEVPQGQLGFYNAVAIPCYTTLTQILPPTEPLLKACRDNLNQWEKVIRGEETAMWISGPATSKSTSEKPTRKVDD
# [10] = test system: rat models relevant to schizophrenia; details: 0.1-0.3 mg/kg; cited from earlier work
# [11] = test system: rat models relevant to schizophrenia; details: 0.1-0.3 mg/kg; cited from earlier work; remark: listed apart in the source
# rats = details: cited from earlier work
# [12] = oral, rodents; cited from earlier work
# [13] = test system: rodents with induced memory deficits; details: oral, 0.1 to 3 mg/kg; cited from earlier work
# T1 sequence (Q9Y233 whole entry): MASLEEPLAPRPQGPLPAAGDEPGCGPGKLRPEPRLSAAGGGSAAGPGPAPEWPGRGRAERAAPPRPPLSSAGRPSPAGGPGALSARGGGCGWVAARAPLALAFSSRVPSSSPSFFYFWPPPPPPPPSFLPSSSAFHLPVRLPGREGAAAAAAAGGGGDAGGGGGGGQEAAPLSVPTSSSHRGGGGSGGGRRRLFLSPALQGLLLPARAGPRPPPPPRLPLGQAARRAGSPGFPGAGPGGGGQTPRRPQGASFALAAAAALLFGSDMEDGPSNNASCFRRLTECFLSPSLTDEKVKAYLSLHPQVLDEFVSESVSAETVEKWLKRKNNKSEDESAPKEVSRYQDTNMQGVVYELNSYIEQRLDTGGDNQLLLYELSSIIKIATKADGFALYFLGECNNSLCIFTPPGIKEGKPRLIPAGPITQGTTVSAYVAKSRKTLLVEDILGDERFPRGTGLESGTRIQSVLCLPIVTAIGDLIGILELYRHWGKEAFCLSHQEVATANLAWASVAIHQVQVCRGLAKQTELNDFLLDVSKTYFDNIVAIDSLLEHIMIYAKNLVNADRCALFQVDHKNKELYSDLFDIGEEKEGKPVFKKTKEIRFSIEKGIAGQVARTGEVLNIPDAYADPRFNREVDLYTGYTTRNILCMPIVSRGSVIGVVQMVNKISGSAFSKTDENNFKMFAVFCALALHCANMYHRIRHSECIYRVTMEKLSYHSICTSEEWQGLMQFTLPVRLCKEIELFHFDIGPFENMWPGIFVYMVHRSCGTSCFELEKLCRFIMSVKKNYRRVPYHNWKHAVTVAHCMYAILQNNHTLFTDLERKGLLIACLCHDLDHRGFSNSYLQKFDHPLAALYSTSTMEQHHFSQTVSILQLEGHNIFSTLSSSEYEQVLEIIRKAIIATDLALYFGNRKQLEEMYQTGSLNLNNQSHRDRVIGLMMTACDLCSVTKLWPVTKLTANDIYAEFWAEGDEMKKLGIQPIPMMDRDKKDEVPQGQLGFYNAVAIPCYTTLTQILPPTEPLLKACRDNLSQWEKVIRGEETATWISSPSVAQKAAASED
# human PDE10, sequence (Q9Y233 whole entry): as above
structure (smiles),measurement,setting,value
"CCNC(=O)c1sc(Nc2nc(Cl)cc(NCc3cccnc3)n2)nc1C [BMS-843496, 2-((4-chloro-6-((pyridin-3-ylmethyl)amino)pyrimidin-2-yl)amino)-N-ethyl-4-methylthiazole-5-carboxamide]",selectivity over other PDE families / family members / phosphodiesterases,other PDE family members [1],> 100 fold
same,"antipsychotic effects, conditioned avoidance response model",[2],correlated with antipsychotic effects
same,IC50,PDE10A [3],2.11 nM
same,Kd,PDE10A [4],0.15 nM
"CC(=O)N1CCC(c2nccnc2Oc2ccc(C(=O)c3nc4ccccc4[nH]3)cc2)CC1 [AMG-579, 1-[4-[3-[4-(1H-benzimidazole-2-carbonyl)phenoxy]pyrazin-2-yl]piperidin-1-yl]ethanone]",IC50,other PDE family members [1]; read-out: IC50 against all other PDE isoforms,> 30000 nM
same,oral bioavailability,[5],orally bioavailable
"Cn1cc(-c2ccncc2)c(-c2ccc(OCc3ccc4ccccc4n3)cc2)n1 [PF-02545920, 2-[[4-(1-methyl-4-pyridin-4-ylpyrazol-3-yl)phenoxy]methyl]quinolone]",secreted levels of IL-6,[6],significantly reduced
same,secreted levels of IL-8,[6],significantly reduced
same,IL-8 induced neutrophil activation,[7],dose dependently inhibited
same,IC50,other PDE family members [8],> 1000 nM
same,secreted levels of TNFα,[9],significantly reduced
"Cc1ncc(C)n2nc(/C=C/c3nc(N4CCCC4)cc(N4CCOCC4)n3)nc12 [PDM-042, (E)-4-(2-(2-(5,8-dimethyl-[1,2,4]triazolo[1,5-a]pyrazin-2-yl)vinyl)-6-(pyrrolidin-1-yl)pyrimidin-4-yl) morpholine]",IC50,human PDE10,< 1 nM
same,IC50,rat PDE10,< 1 nM
same,conditioned avoidance response,[10],attenuated
same,selectivity over other PDE families / family members / phosphodiesterases,other PDE family members [1],more than 1000 fold
same,MK-801-induced hyperlocomotion,[11],significantly antagonized
same,spontaneous locomotor activity,[11],without affecting
"COc1cc2ncnc(N3CC[C@@H](Oc4cnc5ccccc5n4)C3)c2cc1OC [PQ-10, 6,7-dimethoxy-4-[(3R)-3-quinoxalin-2-yloxypyrrolidin-1-yl]quinazoline]",basic auditory information processing,rats,enhances
same,brain penetration,[12],highly brain penetrant
same,induced memory defects,[13],reversed
"COc1cn(-c2ccc(-n3cccn3)cc2F)nc(-c2ccnn2-c2ccccc2)c1=O [TAK-063, 1-(2-fluoro-4-pyrazol-1-ylphenyl)-5-methoxy-3-(2-phenylpyrazol-3-yl)pyridazin-4-one]",secreted levels of IL-6,[6],significantly reduced
same,secreted levels of IL-8,[6],significantly reduced
same,IC50,other PDE family members [8],> 5000 nM
